How the values were obtained:
Cytochrome P450 2D6 [1] = target: T1, Cytochrome P450 2D6 (Homo sapiens, UniProt P10635); experiment: Inhibition of CYP2D6 in human pooled liver microsomes using dextromethorphan as substrate preincubated with NADPH for 30 mins followed by substrate addition and measured after 10 mins by UPLC-MS/MS analysis; format: ADME
Cytochrome P450 2C19 [2] = target: T2, Cytochrome P450 2C19 (Homo sapiens, UniProt P33261); experiment: Inhibition of CYP2C19 in human pooled liver microsomes using (S)-mephenytoin as substrate preincubated with NADPH for 30 mins followed by substrate addition and measured after 10 mins by UPLC-MS/MS analysis; format: ADME
Cytochrome P450 2C9 [3] = target: T3, Cytochrome P450 2C9 (Homo sapiens, UniProt P11712); experiment: Inhibition of CYP2C9 in human pooled liver microsomes using tolbutamide as substrate after 10 mins by UPLC-MS/MS analysis; format: ADME
CYP3A4/5 [4] = target: T4, CYP3A4/5 (Homo sapiens, UniProt P08684+P20815); experiment: Inhibition of CYP3A4/5 in human pooled liver microsomes using midazolam as substrate preincubated with NADPH for 30 mins followed by substrate addition and measured after 10 mins by UPLC-MS/MS analysis; format: ADME; conditions: probe midazolam
Cytochrome P450 2D6 [5] = target: T1, Cytochrome P450 2D6; experiment: Inhibition of CYP2D6 in human pooled liver microsomes using dextromethorphan as substrate after 10 mins by UPLC-MS/MS analysis; format: ADME
Cytochrome P450 1A2 [6] = target: T5, Cytochrome P450 1A2 (Homo sapiens, UniProt P05177); experiment: Inhibition of CYP1A2 in human pooled liver microsomes using phenacetin as substrate after 10 mins by UPLC-MS/MS analysis; format: ADME
T5 sequence (P05177 whole entry): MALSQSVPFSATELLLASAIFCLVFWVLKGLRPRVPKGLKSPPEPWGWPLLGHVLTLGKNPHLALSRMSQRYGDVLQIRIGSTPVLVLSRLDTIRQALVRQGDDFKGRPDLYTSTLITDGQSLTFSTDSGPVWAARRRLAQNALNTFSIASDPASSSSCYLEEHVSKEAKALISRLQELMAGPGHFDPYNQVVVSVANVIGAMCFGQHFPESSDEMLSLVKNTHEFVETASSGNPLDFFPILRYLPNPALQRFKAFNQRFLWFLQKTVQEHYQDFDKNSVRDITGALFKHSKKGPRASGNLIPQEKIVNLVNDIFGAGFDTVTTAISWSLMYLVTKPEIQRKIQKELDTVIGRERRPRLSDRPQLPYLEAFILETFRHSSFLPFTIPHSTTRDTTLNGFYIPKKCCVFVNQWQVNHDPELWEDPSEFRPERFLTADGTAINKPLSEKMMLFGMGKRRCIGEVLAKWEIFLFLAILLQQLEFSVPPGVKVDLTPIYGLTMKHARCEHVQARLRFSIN

Cytochrome P450 2C9 [7] = target: T3, Cytochrome P450 2C9; experiment: Inhibition of CYP2C9 in human pooled liver microsomes using tolbutamide as substrate preincubated with NADPH for 30 mins followed by substrate addition and measured after 10 mins by UPLC-MS/MS analysis; format: ADME
Cytochrome P450 2C19 [8] = target: T2, Cytochrome P450 2C19; experiment: Inhibition of CYP2C19 in human pooled liver microsomes using (S)-mephenytoin as substrate after 10 mins by UPLC-MS/MS analysis; format: ADME
CYP3A4/5 [9] = target: T4, CYP3A4/5; experiment: Inhibition of CYP3A4/5 in human pooled liver microsomes using midazolam as substrate after 10 mins by UPLC-MS/MS analysis; format: ADME; conditions: probe midazolam
Cytochrome P450 2C8 [10] = target: T6, Cytochrome P450 2C8 (Homo sapiens, UniProt P10632); experiment: Inhibition of CYP2C8 in human pooled liver microsomes using amodiaquine as substrate preincubated with NADPH for 30 mins followed by substrate addition and measured after 10 mins by UPLC-MS/MS analysis; format: ADME
T6 sequence (P10632 whole entry): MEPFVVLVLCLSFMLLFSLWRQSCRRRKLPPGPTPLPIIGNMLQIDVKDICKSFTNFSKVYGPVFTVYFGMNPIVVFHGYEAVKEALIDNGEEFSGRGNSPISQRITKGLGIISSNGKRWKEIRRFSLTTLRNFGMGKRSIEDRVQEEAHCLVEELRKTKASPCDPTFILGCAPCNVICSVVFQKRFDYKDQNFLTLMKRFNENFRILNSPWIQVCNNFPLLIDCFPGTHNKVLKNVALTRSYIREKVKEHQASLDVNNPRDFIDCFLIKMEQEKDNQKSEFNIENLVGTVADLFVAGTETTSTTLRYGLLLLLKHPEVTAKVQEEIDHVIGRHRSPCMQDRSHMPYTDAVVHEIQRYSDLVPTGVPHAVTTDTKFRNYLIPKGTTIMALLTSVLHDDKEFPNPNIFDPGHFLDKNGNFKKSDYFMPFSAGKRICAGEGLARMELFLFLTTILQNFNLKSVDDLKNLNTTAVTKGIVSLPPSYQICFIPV

Cytochrome P450 1A2 [11] = target: T5, Cytochrome P450 1A2; experiment: Inhibition of CYP1A2 in human pooled liver microsomes using phenacetin as substrate preincubated with NADPH for 30 mins followed by substrate addition and measured after 10 mins by UPLC-MS/MS analysis; format: ADME
T47D = experiment: Cytotoxicity against human T47D cells at 3 uM after 24 hrs by CellTiter-Glo luminescent cell viability assay; format: cell-based
Cytochrome P450 2C8 [12] = target: T6, Cytochrome P450 2C8; experiment: Inhibition of CYP2C8 in human pooled liver microsomes using amodiaquine as substrate after 10 mins by UPLC-MS/MS analysis; format: ADME
HepG2 = experiment: Cytotoxicity against human HepG2 cells at 3 uM after 24 hrs by CellTiter-Glo luminescent cell viability assay; format: cell-based; conditions: hepg2, 24 h
Cytochrome P450 4Z1 [13] = target: T7, Cytochrome P450 4Z1 (Homo sapiens, UniProt Q86W10); experiment: Inhibition of CYP4Z1 (unknown origin) in human HepG2 cell membranes transduced with lentiviral vector using luciferin-benzyl ether as substrate incubated for 5 mins followed by NADPH addition and measured after 20 mins by P450-glo luciferase based luminescence assay
T7 sequence (Q86W10 whole entry): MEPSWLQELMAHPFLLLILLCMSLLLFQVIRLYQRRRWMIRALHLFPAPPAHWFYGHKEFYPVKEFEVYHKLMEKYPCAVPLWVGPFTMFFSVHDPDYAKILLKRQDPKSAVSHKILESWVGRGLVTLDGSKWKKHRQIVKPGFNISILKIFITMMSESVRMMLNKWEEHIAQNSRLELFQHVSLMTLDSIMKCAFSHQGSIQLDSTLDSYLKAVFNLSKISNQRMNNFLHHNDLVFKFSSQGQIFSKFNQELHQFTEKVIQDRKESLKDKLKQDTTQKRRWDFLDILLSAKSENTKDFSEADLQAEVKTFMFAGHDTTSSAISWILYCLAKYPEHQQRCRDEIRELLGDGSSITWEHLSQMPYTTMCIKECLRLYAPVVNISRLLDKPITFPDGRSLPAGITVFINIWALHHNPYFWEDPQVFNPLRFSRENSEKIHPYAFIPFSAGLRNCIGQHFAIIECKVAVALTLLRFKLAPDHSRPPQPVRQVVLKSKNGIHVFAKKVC

Cytochrome P450 4Z1 [14] = target: T7, Cytochrome P450 4Z1; experiment: Inhibition of CYP4Z1 (unknown origin) in human HepG2 cell membranes transduced with lentiviral vector using luciferin-benzyl ether as substrate preincubated with NADPH for 30 mins followed by substrate addition and measured after 10 mins by P450-glo luciferase based luminescence assay

T1 sequence (P10635 whole entry): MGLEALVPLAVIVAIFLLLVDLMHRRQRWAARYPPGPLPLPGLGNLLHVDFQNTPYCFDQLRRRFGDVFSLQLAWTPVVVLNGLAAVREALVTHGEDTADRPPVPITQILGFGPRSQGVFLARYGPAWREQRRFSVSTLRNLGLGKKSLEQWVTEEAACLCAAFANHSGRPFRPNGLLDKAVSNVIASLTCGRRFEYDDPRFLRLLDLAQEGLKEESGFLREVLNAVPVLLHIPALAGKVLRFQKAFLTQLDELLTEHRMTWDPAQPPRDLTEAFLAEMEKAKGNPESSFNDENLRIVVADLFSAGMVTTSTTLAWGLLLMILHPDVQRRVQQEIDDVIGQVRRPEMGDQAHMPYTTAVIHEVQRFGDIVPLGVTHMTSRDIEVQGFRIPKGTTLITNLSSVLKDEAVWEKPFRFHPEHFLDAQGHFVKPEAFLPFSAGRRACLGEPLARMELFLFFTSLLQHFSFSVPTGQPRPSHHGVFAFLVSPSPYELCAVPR
T2 sequence (P33261 whole entry): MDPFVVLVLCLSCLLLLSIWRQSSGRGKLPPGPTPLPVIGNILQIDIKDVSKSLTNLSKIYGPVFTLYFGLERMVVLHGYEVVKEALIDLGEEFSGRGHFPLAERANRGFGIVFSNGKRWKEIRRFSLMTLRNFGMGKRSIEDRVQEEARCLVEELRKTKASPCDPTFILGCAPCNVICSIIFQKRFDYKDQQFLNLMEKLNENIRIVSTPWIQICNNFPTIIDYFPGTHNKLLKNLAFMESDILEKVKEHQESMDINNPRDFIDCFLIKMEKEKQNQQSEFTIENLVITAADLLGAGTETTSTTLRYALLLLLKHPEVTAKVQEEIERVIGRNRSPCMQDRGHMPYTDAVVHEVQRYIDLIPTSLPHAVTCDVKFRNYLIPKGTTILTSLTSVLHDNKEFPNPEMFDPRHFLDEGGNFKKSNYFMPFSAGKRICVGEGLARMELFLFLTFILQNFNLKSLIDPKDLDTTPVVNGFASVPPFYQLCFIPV
T3 sequence (P11712 whole entry): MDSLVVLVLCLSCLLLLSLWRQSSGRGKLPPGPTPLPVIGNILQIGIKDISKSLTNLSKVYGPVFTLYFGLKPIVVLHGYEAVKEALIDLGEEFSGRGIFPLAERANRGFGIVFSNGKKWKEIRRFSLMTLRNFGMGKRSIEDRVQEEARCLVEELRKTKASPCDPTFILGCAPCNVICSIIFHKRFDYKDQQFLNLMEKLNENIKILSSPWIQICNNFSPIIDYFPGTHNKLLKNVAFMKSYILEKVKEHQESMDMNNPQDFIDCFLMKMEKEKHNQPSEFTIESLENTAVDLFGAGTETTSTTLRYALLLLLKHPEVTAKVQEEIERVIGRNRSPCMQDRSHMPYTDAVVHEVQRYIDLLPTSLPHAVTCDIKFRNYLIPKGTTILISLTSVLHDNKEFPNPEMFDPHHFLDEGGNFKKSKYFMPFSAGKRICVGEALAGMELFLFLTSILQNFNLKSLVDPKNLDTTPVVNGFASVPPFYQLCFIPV

SMILES | IC50 (Cytochrome P450 2D6 [1]) | IC50 (Cytochrome P450 2C19 [2]) | IC50 (Cytochrome P450 2C9 [3]) | IC50 at 10 min (CYP3A4/5 [4]) | IC50 (Cytochrome P450 2D6 [5]) | IC50 (Cytochrome P450 1A2 [6]) | IC50 (Cytochrome P450 2C9 [7]) | IC50 (Cytochrome P450 2C19 [8]) | IC50 at 10 min (CYP3A4/5 [9]) | IC50 (Cytochrome P450 2C8 [10]) | IC50 (Cytochrome P450 1A2 [11]) | Activity (T47D) | IC50 (Cytochrome P450 2C8 [12]) | Activity (HepG2) | IC50 (Cytochrome P450 4Z1 [13]) | IC50 (Cytochrome P450 4Z1 [14])
O=C(O)CCCCCCCNn1nnc2ccccc21 | 299 µM | 246 µM | 343 µM | 128 µM | 826 µM | 614 µM | 330 µM | 759 µM | 244 µM | 84 µM | 55 µM | Non-Toxic | 306 µM | Non-Toxic | – | –
Nn1nnc2ccccc21 | – | – | – | – | – | – | – | – | – | – | – | – | – | – | 154 µM | 12 µM
O=C(O)CCCCCNn1nnc2ccccc21 | 1710 µM | 1640 µM | > 3000 µM | 766 µM | 2850 µM | 2790 µM | 1940 µM | > 3000 µM | 1310 µM | 954 µM | 228 µM | – | 2310 µM | – | – | –

— ChEMBL document CHEMBL4402606, “Design and Characterization of the First Selective and Potent Mechanism-Based Inhibitor of Cytochrome P450 4Z1” (J Med Chem, 2020)
